Results published in ChEMBL document CHEMBL1201862, “PubChem BioAssay data set” (2004).
The source made the active and inactive calls.

What was measured:
[1] = target: T1, Sentrin-specific protease 6 (Homo sapiens, UniProt Q9GZR1); format: functional;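 also: Luminescence-based dose-response confirmatory assay of SENP6 inhibition, following up an ultra-high-throughput screen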
T1 sequence (Q9GZR1 whole entry): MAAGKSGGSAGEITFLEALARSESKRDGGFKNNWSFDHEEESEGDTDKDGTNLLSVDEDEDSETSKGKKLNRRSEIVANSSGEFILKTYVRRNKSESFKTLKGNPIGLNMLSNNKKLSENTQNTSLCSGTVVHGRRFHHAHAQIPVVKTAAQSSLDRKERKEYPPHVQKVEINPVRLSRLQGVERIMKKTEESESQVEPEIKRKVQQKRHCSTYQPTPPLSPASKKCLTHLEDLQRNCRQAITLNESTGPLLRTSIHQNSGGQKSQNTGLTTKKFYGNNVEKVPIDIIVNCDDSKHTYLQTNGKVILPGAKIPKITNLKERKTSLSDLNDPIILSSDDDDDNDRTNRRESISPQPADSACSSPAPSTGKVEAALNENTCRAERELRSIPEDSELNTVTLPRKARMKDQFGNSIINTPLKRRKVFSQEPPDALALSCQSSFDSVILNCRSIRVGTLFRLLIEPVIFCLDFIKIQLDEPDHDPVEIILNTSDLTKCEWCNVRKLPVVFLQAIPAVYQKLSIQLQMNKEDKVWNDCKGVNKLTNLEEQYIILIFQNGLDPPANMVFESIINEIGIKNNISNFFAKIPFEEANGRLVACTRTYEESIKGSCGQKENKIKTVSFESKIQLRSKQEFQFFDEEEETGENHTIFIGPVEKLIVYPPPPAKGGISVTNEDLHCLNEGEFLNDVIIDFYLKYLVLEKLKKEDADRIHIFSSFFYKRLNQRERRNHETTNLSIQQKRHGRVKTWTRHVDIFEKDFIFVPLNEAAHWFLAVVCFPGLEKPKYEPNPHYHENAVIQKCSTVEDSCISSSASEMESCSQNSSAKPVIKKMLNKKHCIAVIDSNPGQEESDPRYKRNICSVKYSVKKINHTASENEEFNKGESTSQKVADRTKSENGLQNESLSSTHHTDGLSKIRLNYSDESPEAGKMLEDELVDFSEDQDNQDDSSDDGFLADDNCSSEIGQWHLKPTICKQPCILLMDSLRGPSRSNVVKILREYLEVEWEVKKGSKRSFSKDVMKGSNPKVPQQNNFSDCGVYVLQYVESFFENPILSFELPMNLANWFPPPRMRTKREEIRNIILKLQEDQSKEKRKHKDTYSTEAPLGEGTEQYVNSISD

[2] = target: T2, Serine/threonine-protein phosphatase (Candida dubliniensis (strain CD36 / CBS 7987 / NCPF 3949 / NRRLY-17841) (Yeast), UniProt B9W6M3); assay: blockers of CaCl2-induced CDRE-lacZ signaling – S. cerevisiae, luminescence, secondary, dose response (AID 2388); format: functional, cell-based;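 also: yeast reporter cells carrying a calcineurin-responsive lacZ construct stimulated with calcium chloride; luminescent beta-galactosidase reporter signal in whole cells rather than isolated phosphatase activity; potency for inhibition where a drop in reporter signal means calcineurin blockade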
T2 sequence (B9W6M3 whole entry): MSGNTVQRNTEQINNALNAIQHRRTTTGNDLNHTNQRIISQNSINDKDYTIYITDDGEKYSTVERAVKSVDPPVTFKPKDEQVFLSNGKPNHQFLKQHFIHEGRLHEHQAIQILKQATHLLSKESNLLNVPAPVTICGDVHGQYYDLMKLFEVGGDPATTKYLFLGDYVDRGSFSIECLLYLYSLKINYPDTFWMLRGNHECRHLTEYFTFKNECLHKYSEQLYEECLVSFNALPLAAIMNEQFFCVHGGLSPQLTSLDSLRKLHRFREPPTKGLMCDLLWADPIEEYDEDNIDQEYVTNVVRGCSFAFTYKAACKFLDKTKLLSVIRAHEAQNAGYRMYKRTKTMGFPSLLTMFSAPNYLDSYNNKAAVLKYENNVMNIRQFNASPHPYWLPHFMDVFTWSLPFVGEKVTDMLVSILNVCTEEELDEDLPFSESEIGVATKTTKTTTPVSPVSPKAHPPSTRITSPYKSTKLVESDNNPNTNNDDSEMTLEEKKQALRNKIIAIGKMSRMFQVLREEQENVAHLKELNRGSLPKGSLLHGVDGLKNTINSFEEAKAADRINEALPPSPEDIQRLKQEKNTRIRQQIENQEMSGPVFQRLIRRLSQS

[3] = target: T3, Sentrin-specific protease 7 (Homo sapiens, UniProt Q9BQF6); format: functional;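 also: Luminescence-based dose-response confirmation of ultra-high-throughput screening hits, measuring inhibition of SENP7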
T3 sequence (Q9BQF6 whole entry): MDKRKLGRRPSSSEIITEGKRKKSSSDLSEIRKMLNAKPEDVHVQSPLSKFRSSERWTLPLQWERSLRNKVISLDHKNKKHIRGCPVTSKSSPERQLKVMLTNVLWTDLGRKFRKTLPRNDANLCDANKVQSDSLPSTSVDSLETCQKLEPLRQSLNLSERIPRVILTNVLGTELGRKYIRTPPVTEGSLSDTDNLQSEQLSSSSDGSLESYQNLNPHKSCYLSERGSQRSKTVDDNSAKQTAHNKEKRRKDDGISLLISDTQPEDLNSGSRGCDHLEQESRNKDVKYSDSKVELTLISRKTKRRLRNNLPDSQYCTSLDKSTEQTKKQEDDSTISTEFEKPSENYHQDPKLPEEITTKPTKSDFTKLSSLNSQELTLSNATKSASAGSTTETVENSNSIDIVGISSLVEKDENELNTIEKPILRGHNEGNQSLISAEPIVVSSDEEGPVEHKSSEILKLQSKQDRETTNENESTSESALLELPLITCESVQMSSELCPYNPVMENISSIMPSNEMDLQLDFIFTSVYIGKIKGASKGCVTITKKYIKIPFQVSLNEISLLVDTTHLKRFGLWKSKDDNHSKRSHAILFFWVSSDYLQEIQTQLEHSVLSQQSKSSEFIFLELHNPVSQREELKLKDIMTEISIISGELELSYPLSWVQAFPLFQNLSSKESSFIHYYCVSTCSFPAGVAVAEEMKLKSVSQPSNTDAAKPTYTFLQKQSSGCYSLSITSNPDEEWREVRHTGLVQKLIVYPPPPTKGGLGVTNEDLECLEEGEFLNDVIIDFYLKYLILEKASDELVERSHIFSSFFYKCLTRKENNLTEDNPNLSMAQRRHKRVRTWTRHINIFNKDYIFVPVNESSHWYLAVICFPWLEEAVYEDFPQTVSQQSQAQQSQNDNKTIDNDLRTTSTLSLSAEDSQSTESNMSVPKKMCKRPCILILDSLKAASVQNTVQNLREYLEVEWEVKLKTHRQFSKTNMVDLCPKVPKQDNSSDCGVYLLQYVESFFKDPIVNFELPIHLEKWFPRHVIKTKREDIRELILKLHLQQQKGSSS

[4] = target: Photoreceptor-specific nuclear receptor (Homo sapiens, UniProt Q9Y5X4); format: functional, cell-based;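 also: CHO-S cells with Gal4-NCOR and VP16-NR2E3 two-hybrid luciferase reporter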
Photoreceptor-specific nuclear receptor, sequence (Q9Y5X4 whole entry, the tested form may be a part): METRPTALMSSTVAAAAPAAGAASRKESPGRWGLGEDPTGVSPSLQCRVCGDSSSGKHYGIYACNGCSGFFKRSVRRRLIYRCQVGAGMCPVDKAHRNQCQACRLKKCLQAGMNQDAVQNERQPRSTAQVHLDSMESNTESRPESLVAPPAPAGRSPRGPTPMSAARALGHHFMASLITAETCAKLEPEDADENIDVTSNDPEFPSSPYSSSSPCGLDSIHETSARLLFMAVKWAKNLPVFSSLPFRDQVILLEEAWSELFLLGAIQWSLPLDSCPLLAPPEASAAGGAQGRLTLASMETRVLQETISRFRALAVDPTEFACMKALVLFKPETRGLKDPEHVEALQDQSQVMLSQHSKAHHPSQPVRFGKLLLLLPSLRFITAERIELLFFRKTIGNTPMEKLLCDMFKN

[5] = tested on: Streptococcus sp. 'group A'; assay: Streptococcus pyogenes SK(-)GAS viability under kanamycin – luminescence, BacTiterGlo, confirmation, counter-screen for streptokinase expression inhibitor project, dose response (AID 1900); format: functional, organism-based
Genome polyprotein = Genome polyprotein (dengue virus type 2, UniProt P29990); assay: flavivirus cap methylation enzyme inhibition – biochemical, confirmation dose response, primary screen (AID 588689); format: functional
Genome polyprotein, sequence (P29990 2492-3391 limits assumed): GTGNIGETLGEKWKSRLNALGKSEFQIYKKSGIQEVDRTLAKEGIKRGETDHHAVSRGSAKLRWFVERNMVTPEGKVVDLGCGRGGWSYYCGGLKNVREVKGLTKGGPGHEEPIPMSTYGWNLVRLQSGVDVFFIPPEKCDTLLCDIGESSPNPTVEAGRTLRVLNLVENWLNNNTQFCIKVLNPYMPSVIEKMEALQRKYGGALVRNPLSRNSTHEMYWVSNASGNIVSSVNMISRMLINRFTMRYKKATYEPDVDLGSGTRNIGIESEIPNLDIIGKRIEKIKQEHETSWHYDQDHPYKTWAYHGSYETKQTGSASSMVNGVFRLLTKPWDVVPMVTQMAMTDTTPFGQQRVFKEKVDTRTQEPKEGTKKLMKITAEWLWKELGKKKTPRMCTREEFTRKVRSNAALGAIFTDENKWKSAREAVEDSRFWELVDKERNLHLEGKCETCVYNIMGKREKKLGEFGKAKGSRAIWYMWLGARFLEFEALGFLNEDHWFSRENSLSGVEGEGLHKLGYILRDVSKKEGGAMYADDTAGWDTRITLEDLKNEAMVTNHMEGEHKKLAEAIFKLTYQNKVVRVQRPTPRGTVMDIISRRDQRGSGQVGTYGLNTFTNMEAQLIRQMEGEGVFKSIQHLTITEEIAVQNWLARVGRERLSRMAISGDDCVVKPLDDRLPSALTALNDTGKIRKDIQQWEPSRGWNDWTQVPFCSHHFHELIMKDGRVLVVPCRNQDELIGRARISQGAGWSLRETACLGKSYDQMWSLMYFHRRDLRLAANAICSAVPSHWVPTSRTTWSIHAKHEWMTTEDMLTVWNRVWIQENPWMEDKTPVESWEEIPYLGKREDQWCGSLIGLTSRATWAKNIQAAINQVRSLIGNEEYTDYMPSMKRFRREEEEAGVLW

Question: Which IC50 [1] does the source give for `Cc1ccc(NC2=CC(=O)C(=O)c3ccccc32)cc1` here?
Answer: 13.5 µM (active)

Question: What about the EC50 [2] of the same compound?
Answer: > 180 µM (inactive)

Question: What about the IC50 [3] of the same compound?
Answer: 36.7 µM (active)

Question: `O=C(O)c1ccc(S(=O)(=O)/N=C2\C=C(Nc3ccccc3F)C(=O)c3ccccc32)cc1` was tested. Which IC50 [4] did it give?
Answer: 12.2 µM (inactive)

Question: What about the EC50 [5] of the same compound?
Answer: 5.74 µM (active)

Question: What about the IC50 (Genome polyprotein) of the same compound?
Answer: 11.2 µM (active)
